Four compounds from PubChem BioAssay AID1259407 (Chemical Carcinogenesis Research Information System (CCRIS), 2018) can be followed below.

Activity calls are given as the source filed them. How the calls were made is not given here.

The series has as its system CCRIS mutagenicity, Ames/micronucleus/aberration tests. As to the kind of experiment: CCRIS mutagenicity studies.
The mark [1] stands for this setting: Test System: AMES SALMONELLA TYPHIMURIUM, Strain/Indicator: TA98, Metabolic Activation: NONE, Method: PREINCUBATION
The mark [2] stands for this setting: Test System: AMES SALMONELLA TYPHIMURIUM, Strain/Indicator: TA100, Metabolic Activation: NONE, Method: PREINCUBATION

`Nc1nc(-c2ccc([N+](=O)[O-])cc2)nc2c1ncn2-c1ccc([N+](=O)[O-])cc1`: the mutagenic call runs as follows: (Test System: AMES SALMONELLA TYPHIMURIUM, Strain/Indicator: TA98(1,8-DNP), Metabolic Activation: NONE, Method: PREINCUBATION) “active; positive”; (Test System: AMES SALMONELLA TYPHIMURIUM, Strain/Indicator: TA98(1,8-DNP), Metabolic Activation: RAT, LIVER, S-9, PCB, Method: PREINCUBATION) “active; positive”; (Test System: AMES SALMONELLA TYPHIMURIUM, Strain/Indicator: TA98(NR), Metabolic Activation: NONE, Method: PREINCUBATION) “active; positive”; (Test System: AMES SALMONELLA TYPHIMURIUM, Strain/Indicator: TA98(NR), Metabolic Activation: RAT, LIVER, S-9, PCB, Method: PREINCUBATION) “active; positive”; under setting [1], “active; positive”; (Test System: AMES SALMONELLA TYPHIMURIUM, Strain/Indicator: TA98, Metabolic Activation: RAT, LIVER, S-9, PCB, Method: PREINCUBATION) “active; positive”. The mutagenic call is, setting by setting: (Test System: AMES SALMONELLA TYPHIMURIUM, Strain/Indicator: TA100(1,8-DNP), Metabolic Activation: NONE, Method: PREINCUBATION) “active; positive”; (Test System: AMES SALMONELLA TYPHIMURIUM, Strain/Indicator: TA100(1,8-DNP), Metabolic Activation: RAT, LIVER, S-9, PCB, Method: PREINCUBATION) “inactive; negative”; (Test System: AMES SALMONELLA TYPHIMURIUM, Strain/Indicator: TA100(NR), Metabolic Activation: NONE, Method: PREINCUBATION) “active; positive”; (Test System: AMES SALMONELLA TYPHIMURIUM, Strain/Indicator: TA100(NR), Metabolic Activation: RAT, LIVER, S-9, PCB, Method: PREINCUBATION) “inactive; negative”; under setting [2], “active; positive”; (Test System: AMES SALMONELLA TYPHIMURIUM, Strain/Indicator: TA100, Metabolic Activation: RAT, LIVER, S-9, PCB, Method: PREINCUBATION) “active; positive”. For the same compound, the mutagenic call reads like this: (Test System: AMES SALMONELLA TYPHIMURIUM, Strain/Indicator: YG1020, Metabolic Activation: NONE, Method: PREINCUBATION) “active; positive”; (Test System: AMES SALMONELLA TYPHIMURIUM, Strain/Indicator: YG1020, Metabolic Activation: RAT, LIVER, S-9, PCB, Method: PREINCUBATION) “active; positive”; (Test System: AMES SALMONELLA TYPHIMURIUM, Strain/Indicator: YG1021, Metabolic Activation: NONE, Method: PREINCUBATION) “active; positive”; (Test System: AMES SALMONELLA TYPHIMURIUM, Strain/Indicator: YG1021, Metabolic Activation: RAT, LIVER, S-9, PCB, Method: PREINCUBATION) “active; positive”; (Test System: AMES SALMONELLA TYPHIMURIUM, Strain/Indicator: YG1024, Metabolic Activation: NONE, Method: PREINCUBATION) “active; positive”; (Test System: AMES SALMONELLA TYPHIMURIUM, Strain/Indicator: YG1024, Metabolic Activation: RAT, LIVER, S-9, PCB, Method: PREINCUBATION) “active; positive”. The mutagenic call reads like this: (Test System: AMES SALMONELLA TYPHIMURIUM, Strain/Indicator: YG1025, Metabolic Activation: NONE, Method: PREINCUBATION) “active; positive”; (Test System: AMES SALMONELLA TYPHIMURIUM, Strain/Indicator: YG1025, Metabolic Activation: RAT, LIVER, S-9, PCB, Method: PREINCUBATION) “active; positive”; (Test System: AMES SALMONELLA TYPHIMURIUM, Strain/Indicator: YG1026, Metabolic Activation: NONE, Method: PREINCUBATION) “active; positive”; (Test System: AMES SALMONELLA TYPHIMURIUM, Strain/Indicator: YG1026, Metabolic Activation: RAT, LIVER, S-9, PCB, Method: PREINCUBATION) “active; positive”; (Test System: AMES SALMONELLA TYPHIMURIUM, Strain/Indicator: YG1029, Metabolic Activation: NONE, Method: PREINCUBATION) “active; positive”; (Test System: AMES SALMONELLA TYPHIMURIUM, Strain/Indicator: YG1029, Metabolic Activation: RAT, LIVER, S-9, PCB, Method: PREINCUBATION) “active; positive”.

As to `CN(C)c1ccc(N=Nc2ccc(N(C)C)cc2)cc1`, the mutagenic call (Test System: AMES SALMONELLA TYPHIMURIUM, Strain/Indicator: TA98, Metabolic Activation: RAT, LIVER, S-9, POLYCHLORINATED BIPHENYLS, Method: PREINCUBATION) was “inactive; negative” and the mutagenic call (Test System: AMES SALMONELLA TYPHIMURIUM, Strain/Indicator: TA100, Metabolic Activation: RAT, LIVER, S-9, POLYCHLORINATED BIPHENYLS, Method: PREINCUBATION) was “inactive; negative”.

As to `ClCc1cccnc1`, the mutagenic call runs as follows: (Test System: AMES SALMONELLA TYPHIMURIUM, Strain/Indicator: TA98, Metabolic Activation: NONE, Method: STANDARD PLATE) “inactive; negative”; (Test System: AMES SALMONELLA TYPHIMURIUM, Strain/Indicator: TA98, Metabolic Activation: RAT, LIVER, S-9, AROCLOR 1254, Method: STANDARD PLATE) “inactive; negative”; (Test System: AMES SALMONELLA TYPHIMURIUM, Strain/Indicator: TA100, Metabolic Activation: RAT, LIVER, S-9, AROCLOR 1254, Method: STANDARD PLATE) “active; positive”; (Test System: AMES SALMONELLA TYPHIMURIUM, Strain/Indicator: TA102, Metabolic Activation: NONE, Method: STANDARD PLATE) “inactive; negative”; (Test System: AMES SALMONELLA TYPHIMURIUM, Strain/Indicator: TA102, Metabolic Activation: RAT, LIVER, S-9, AROCLOR 1254, Method: STANDARD PLATE) “inactive; negative”; (Test System: E. COLI, Strain/Indicator: WP2 UVRA, Metabolic Activation: MOUSE, LIVER, S-9, AROCLOR 1254, Method: STANDARD PLATE) “inactive; negative”. Moreover, the mutagenic call (Test System: E. COLI, Strain/Indicator: WP2 UVRA, Metabolic Activation: NONE, Method: STANDARD PLATE) is “inactive; negative”; the mutagenic call (Test System: E. COLI, Strain/Indicator: WP2 UVRA, Metabolic Activation: RAT, LIVER, S-9, AROCLOR 1254, Method: STANDARD PLATE) is “inactive; negative”; the mutagenic call (Test System: E. COLI, Strain/Indicator: WP2 UVRA, Metabolic Activation: RAT, LIVER, S-9, Method: STANDARD PLATE) was “inactive; negative”; the mutagenic call (Test System: MOUSE LYMPHOMA, Strain/Indicator: L5178Y (TK+/TK-), Metabolic Activation: NONE, Method: SUSPENSION/PLATE) was “active; positive”; the mutagenic call (Test System: MOUSE LYMPHOMA, Strain/Indicator: L5178Y (TK+/TK-), Metabolic Activation: RAT, LIVER, S-9, AROCLOR 1254, Method: SUSPENSION/PLATE) was “active; positive”.

With `C=C(C)[C@@]12OC3(c4ccccc4)O[C@@H]1[C@@H]1[C@@H]4OC4(CO)[C@@H](O)[C@]4(O)C(=O)C(C)=C[C@H]4[C@@]1(O3)[C@H](C)[C@H]2OC(=O)/C=C/C=C/c1ccccc1` (some centres undefined), the mutagenic call (Test System: AMES SALMONELLA TYPHIMURIUM, Strain/Indicator: TA97, Metabolic Activation: HAMSTER, LIVER, S-9, AROCLOR 1254 (10 OR 30%), Method: PREINCUBATION) was “inactive; negative”; the mutagenic call (Test System: AMES SALMONELLA TYPHIMURIUM, Strain/Indicator: TA97, Metabolic Activation: NONE, Method: PREINCUBATION) is “inactive; negative”; the mutagenic call (Test System: AMES SALMONELLA TYPHIMURIUM, Strain/Indicator: TA97, Metabolic Activation: RAT, LIVER, S-9, AROCLOR 1254 (10 OR 30%), Method: PREINCUBATION) was “inactive; negative”; the mutagenic call (Test System: AMES SALMONELLA TYPHIMURIUM, Strain/Indicator: TA98, Metabolic Activation: HAMSTER, LIVER, S-9, AROCLOR 1254 (10 OR 30%), Method: PREINCUBATION) is “inactive; negative”; the mutagenic call under setting [1] was “inactive; negative”; the mutagenic call (Test System: AMES SALMONELLA TYPHIMURIUM, Strain/Indicator: TA98, Metabolic Activation: RAT, LIVER, S-9, AROCLOR 1254 (10 OR 30%), Method: PREINCUBATION) is “inactive; negative”. Also, the mutagenic call (Test System: AMES SALMONELLA TYPHIMURIUM, Strain/Indicator: TA100, Metabolic Activation: HAMSTER, LIVER, S-9, AROCLOR 1254 (10 OR 30%), Method: PREINCUBATION) is “inactive; negative”; the mutagenic call under setting [2] is “inactive; negative”; the mutagenic call (Test System: AMES SALMONELLA TYPHIMURIUM, Strain/Indicator: TA100, Metabolic Activation: RAT, LIVER, S-9, AROCLOR 1254 (10 OR 30%), Method: PREINCUBATION) was “inactive; negative”; the mutagenic call (Test System: AMES SALMONELLA TYPHIMURIUM, Strain/Indicator: TA1535, Metabolic Activation: HAMSTER, LIVER, S-9, AROCLOR 1254 (10 OR 30%), Method: PREINCUBATION) is “inactive; negative”; the mutagenic call (Test System: AMES SALMONELLA TYPHIMURIUM, Strain/Indicator: TA1535, Metabolic Activation: NONE, Method: PREINCUBATION) was “inactive; negative”; the mutagenic call (Test System: AMES SALMONELLA TYPHIMURIUM, Strain/Indicator: TA1535, Metabolic Activation: RAT, LIVER, S-9, AROCLOR 1254 (10 OR 30%), Method: PREINCUBATION) was “inactive; negative”.
